Experiments:
[1] = Singlet oxygen generation (DPBF absorption, 520 nm laser); assay type: physicochemical; details: for Singlet oxygen quantum yield (%): DPBF 40 μM in EtOH, 520 nm laser 0.3 mW
U87 glioblastoma cells = experiment: Phototoxicity assay in U87 glioblastoma cells, Annexin V-Pacific Blue staining (fluorescence microscopy, flow cytometry); assay type: cell-based
Method: Compound was administered at 100 μM and illuminated under 520 nm light. Annexin V-Pacific Blue was used as a stain for dead cells. Red fluorescence was used to confirm uptake of PS-SCOTfluor-13 into cells.
Phototoxicity assays of PS-SCOTfluor-13 and 2-NBDG in U87 glioblastoma cells were determined. Compounds administered at 100 μM and illuminated under 520 nm light. Annexin V-Pacific Blue was used as a stain for dead cells. Red fluorescence (for PS-SCOTfluor-13) and green fluorescence (for 2-NBDG) was used to confirm uptake of the compounds into cells.

[2] = test system: U87-mCrimson glioblastoma cells; experiment: U87-mCrimson glioblastoma transplant in zebrafish embryos, 520 nm irradiation; assay type: in vivo; details: compound injected, then 520 nm light
Method: Briefly, U87-mCrimson glioblastoma cells were injected into the yolk sac of zebrafish embryos. Cells were effectively transplanted as shown by fluorescence microscopy images. Zebrafish were then irradiated with 520 nm light alone or injected with PS-SCOTfluor-13 and then irradiated with 520 nm light.

[3] = 100 μM, illuminated under 520 nm light

Compound | Singlet oxygen quantum yield (%) [1] [%] | Cell death as detected by Annexin V staining (fluorescence microscopy) (U87 glioblastoma cells; [3]) | other results
CCN(CC)c1ccc([N+](=O)[O-])c2n[se]nc12 [PS-SCOTfluor-5, N,N-diethyl-7-nitrobenzo[c][1,2,5]selenadiazol-4-amine] | 3 |  | 
O=[N+]([O-])c1ccc(N[C@H]2C(O)O[C@H](CO)[C@@H](O)[C@@H]2O)c2nonc12 (stereo partly drawn) [2-NBDG, reference compound] | <1 | does not kill the cells after illumination | Uptake into U87 glioblastoma cells (fluorescence) (U87 glioblastoma cells; 100 μM): uptaken by U87 glioblastoma cells
O=[N+]([O-])c1ccc(N[C@@H]2[C@@H](O)[C@H](O)[C@@H](CO)O[C@H]2O)c2nsnc12 [PS-SCOTfluor-13, (2R,3R,4R,5S,6R)-6-(hydroxymethyl)-3-((7-nitrobenzo[c][1,2,5]thiadiazol-4-yl)amino)tetrahydro-2H-pyran-2,4,5-triol] | 24 | kills U87 glioblastoma cells only after irradiation with light | Activity as photosensitizer (summary of Table 1) [1]: high activity as photosensitizer; Cell death as detected by Annexin V staining (flow cytometry) (U87 glioblastoma cells; [3]): kills U87 glioblastoma cells only after irradiation with light but not without light; Effect of excess unlabelled glucose on uptake and cell death (U87 glioblastoma cells; competition with excess unlabelled glucose, Annexin V staining): reduces the uptake of PS-SCOTfluor-13 and subsequently cell death; Glioblastoma transplant (fluorescence of mCrimson reporter) [2]: reduction of the glioblastoma transplant
CCN(CC)c1cc(I)c([N+](=O)[O-])c2n[se]nc12 [PS-SCOTfluor-6, N,N-diethyl-6-iodo-7-nitrobenzo[c][1,2,5]selenadiazol-4-amine] | 5 |  | 
NC(CNc1ccc([N+](=O)[O-])c2n[se]nc12)C(=O)O (stereo not drawn) [PS-SCOTfluor-19, 2-amino-3-((7-nitrobenzo[c][1,2,5]selenadiazol-4-yl)amino)propanoic acid] | 10 |  | 
